Reference: patent US6004983A, “N-substituted azaheterocyclic compounds” (Novo Nordisk A/S, priority 1996, dated 1999)

Tested on: histamine induced oedema
Assay: Histamine induced paw oedema (rat histamine paw oedema test)
Type: in vivo, rat (male Sprague-Dawley)
Conditions: at 1 mg/kg, intraperitoneally 15 minutes before the anaesthetics, histamine 50 microliter, 3 mg/ml in right hind paw, swelling 20 minutes after histamine
Description: Compounds of formula I may be used to treat all painful, hyperalgesic and/or inflammatory conditions in which C-fibres play a pathophysiological role by eliciting neurogenic pain or inflammation, i. e.:
I. Histamine induced paw oedema
The rat histamine paw oedema test was performed essentially as described by Amann et al. (Europ. J. Pharmacol. 279, 227-231, 1995). In brief 250-300 g male Sprague-Dawley rats were anaesthetized with pentobarbital sodium, and placed on a 32 degree(Celsius) heated table. Ten minutes later histamine (50 micoliter, 3 mg/ml) was injected in the right hind paw and 20 minutes hereafter the paw swelling was determined by water plethysmography (Ugo Basile). Test compounds were administered intraperitoneally at 15 minutes before the anaesthetics.

| Compound | % oedema inhibition (inhibition of histamine induced oedema) |
| --- | --- |
| Cl.O=C(O)C1CCN(CC=C2c3ccccc3CSc3ccccc32)CC1 [Example 2, 1-(2-(6,11-Dihydrodibenzo[b,e]thiepin-11-ylidene)-1-ethyl)-4-piperidinecarboxylic acid hydrochloride] | 51% |
| Cl.O=C(O)[C@H]1CCCCN1CC=C1c2ccccc2CCc2ccccc21 [Example 12, (R)-1-(2-(10,11-dihydro-5H-dibenzo[a,d]cyclohepten-5-ylidene)-1-ethyl)-2-piperidinecarboxylic acid hydrochloride] | 49% |
